In US20220002314A1 (priority 2018, published 2022) one finds Ki data, which are given here for 35 compounds.

Where two headings read alike, the source gives them in different places.

The target of assay [1] is Human α2δ-1 subunit of Cav2.2 calcium channel (Homo sapiens, UniProt P54289). The experiment in a line: biochemical. The format is binding.
In the next assay the target is Human μ-opioid receptor (Homo sapiens, UniProt P35372). Kind of assay: biochemical. Type of assay: binding.
Sequence of Human μ-opioid receptor (P35372 whole entry): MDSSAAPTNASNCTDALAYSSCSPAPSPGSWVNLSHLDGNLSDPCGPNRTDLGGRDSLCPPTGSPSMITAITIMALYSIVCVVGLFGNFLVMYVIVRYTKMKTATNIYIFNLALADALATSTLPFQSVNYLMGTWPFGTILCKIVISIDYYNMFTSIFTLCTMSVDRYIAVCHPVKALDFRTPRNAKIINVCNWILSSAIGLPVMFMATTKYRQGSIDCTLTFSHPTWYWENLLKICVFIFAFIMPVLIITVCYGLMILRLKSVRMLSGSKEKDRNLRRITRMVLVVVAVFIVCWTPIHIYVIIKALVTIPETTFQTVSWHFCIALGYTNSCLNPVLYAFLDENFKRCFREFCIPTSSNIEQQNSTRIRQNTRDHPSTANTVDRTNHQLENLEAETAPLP

Sequence of Human α2δ-1 subunit of Cav2.2 calcium channel (P54289 25-1103): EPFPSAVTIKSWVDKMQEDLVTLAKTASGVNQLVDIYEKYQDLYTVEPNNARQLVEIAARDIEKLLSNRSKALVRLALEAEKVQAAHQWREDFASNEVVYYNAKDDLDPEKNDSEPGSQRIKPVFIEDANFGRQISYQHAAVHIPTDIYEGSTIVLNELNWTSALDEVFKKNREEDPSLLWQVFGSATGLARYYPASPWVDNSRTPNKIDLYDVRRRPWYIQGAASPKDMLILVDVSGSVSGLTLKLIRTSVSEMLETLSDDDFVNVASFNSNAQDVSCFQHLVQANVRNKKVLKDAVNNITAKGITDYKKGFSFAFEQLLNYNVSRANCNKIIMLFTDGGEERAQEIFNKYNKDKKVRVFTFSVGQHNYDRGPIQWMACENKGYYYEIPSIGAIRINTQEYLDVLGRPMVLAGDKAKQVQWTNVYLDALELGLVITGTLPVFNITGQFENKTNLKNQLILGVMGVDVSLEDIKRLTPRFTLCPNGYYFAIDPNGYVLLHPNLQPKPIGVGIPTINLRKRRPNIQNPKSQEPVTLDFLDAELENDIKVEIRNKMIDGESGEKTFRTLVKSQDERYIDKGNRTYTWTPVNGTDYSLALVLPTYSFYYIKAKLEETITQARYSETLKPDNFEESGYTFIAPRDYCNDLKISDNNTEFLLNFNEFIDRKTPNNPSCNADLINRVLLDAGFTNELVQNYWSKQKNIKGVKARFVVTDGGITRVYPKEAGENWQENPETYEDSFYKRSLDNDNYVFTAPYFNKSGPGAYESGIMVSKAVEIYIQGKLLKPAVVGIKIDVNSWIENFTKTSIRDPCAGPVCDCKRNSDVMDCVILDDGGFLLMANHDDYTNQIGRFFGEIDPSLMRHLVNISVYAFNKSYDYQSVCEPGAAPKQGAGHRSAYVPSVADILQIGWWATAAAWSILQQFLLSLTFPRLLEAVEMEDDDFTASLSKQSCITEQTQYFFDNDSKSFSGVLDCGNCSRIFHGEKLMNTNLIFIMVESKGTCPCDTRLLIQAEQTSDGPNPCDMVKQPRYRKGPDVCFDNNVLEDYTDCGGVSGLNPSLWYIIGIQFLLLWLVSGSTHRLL

Take `CCCC(c1nc2cc(Br)ccc2c(=O)n1CC)N1CCNCC1` (stereo not shown) [Example 81, 7-bromo-3-ethyl-2-(1-(piperazin-1-yl)butyl)quinazolin-4(3H)-one]: the values for the Ki (in assay [1]; at Human μ-opioid receptor) were less than 500 nM and more than 500 nM, respectively.

For the compound `CCCC(c1nc2ccc(Br)cc2c(=O)n1CCC)N1CCNCC1` (stereo not shown) [Example 82, 6-bromo-2-(1-(piperazin-1-yl)butyl)-3-propylquinazolin-4(3H)-one], the Ki in assay [1] is less than 500 nM; at Human μ-opioid receptor it was 100 to 500 nM.

For the compound `CCCC(c1nc2cc(F)c(Br)cc2c(=O)n1CC)N1CCNCC1` (stereo not shown) [Example 83, 6-bromo-3-ethyl-7-fluoro-2-(1-(piperazin-1-yl)butyl)quinazolin-4(3H)-one], the Ki in assay [1] was less than 500 nM; on Human μ-opioid receptor, 100 to 500 nM.

Regarding `CCCC(c1nc2ccc(Br)c(C)c2c(=O)n1CC)N1CCNCC1` (stereo not shown) [Example 84, 6-bromo-3-ethyl-5-methyl-2-(1-(piperazin-1-yl)butyl)quinazolin-4(3H)-one], the results for the Ki (in assay [1]; on Human μ-opioid receptor) were 500 to 5000 nM and 100 to 500 nM, respectively.

On to `CCCC(c1nc2cc(C)c(Br)cc2c(=O)n1CC)N1CCNCC1` (stereo not shown) [Example 85, 6-bromo-3-ethyl-7-methyl-2-(1-(piperazin-1-yl)butyl)quinazolin-4(3H)-one], for which the Ki in assay [1] is less than 500 nM; on Human μ-opioid receptor, more than 500 nM.

Take `CCCC(c1nc2cc(F)c(F)cc2c(=O)n1CC)N1CCNCC1` (stereo not shown) [Example 86, 3-ethyl-6,7-difluoro-2-(1-(piperazin-1-yl)butyl)quinazolin-4(3H)-one]: the Ki in assay [1] was less than 500 nM; at Human μ-opioid receptor, more than 500 nM.

As to `CCCC(c1nc2c(F)cc(Br)cc2c(=O)n1CC)N1CCNCC1` (stereo not shown) [Example 87, 6-bromo-3-ethyl-8-fluoro-2-(1-(piperazin-1-yl)butyl)quinazolin-4(3H)-one], the values for the Ki (in assay [1]; on Human μ-opioid receptor) were 500 to 5000 nM and 100 to 500 nM, respectively.

For `CCCC(c1nc2ccc(Br)c(F)c2c(=O)n1CC)N1CCNCC1` (stereo not shown) [Example 88, 6-bromo-3-ethyl-5-fluoro-2-(1-(piperazin-1-yl)butyl)quinazolin-4(3H)-one], the Ki in assay [1] was less than 500 nM; on Human μ-opioid receptor it was more than 500 nM.

Consider `CCCC(c1nc2c(C)cc(Br)cc2c(=O)n1CC)N1CCNCC1` (stereo not shown) [Example 89, 6-bromo-3-ethyl-8-methyl-2-(1-(piperazin-1-yl)butyl)quinazolin-4(3H)-one], for which the Ki was more than 5000 nM in assay [1] and less than 100 nM at Human μ-opioid receptor.

In the case of `CCCC(c1nc2c(Cl)cc(F)cc2c(=O)n1CC)N1CCNCC1` (stereo not shown) [Example 90, 8-chloro-3-ethyl-6-fluoro-2-(1-(piperazin-1-yl)butyl)quinazolin-4(3H)-one], the values for the Ki (in assay [1]; on Human μ-opioid receptor) were more than 5000 nM and 100 to 500 nM, respectively.

With `CCCC(c1nc2ccc(Br)c(Cl)c2c(=O)n1CC)N1CCNCC1` (stereo not shown) [Example 91, 6-bromo-5-chloro-3-ethyl-2-(1-(piperazin-1-yl)butyl)quinazolin-4(3H)-one], the values for the Ki (in assay [1]; on Human μ-opioid receptor) were less than 500 nM and 100 to 500 nM, respectively.

Consider `CCCC(c1nc2cccnc2c(=O)n1CC)N1CCNCC1` (stereo not shown) [Example 92, 3-ethyl-2-(1-(piperazin-1-yl)butyl)pyrido[3,2-d]pyrimidin-4(3H)-one], for which the figures for the Ki (in assay [1]; on Human μ-opioid receptor) were less than 500 nM and more than 500 nM, respectively.

As for `CCCC(c1nc2ncc(Br)cc2c(=O)n1CC)N1CCNCC1` (stereo not shown) [Example 93, 6-bromo-3-ethyl-2-(1-(piperazin-1-yl)butyl)pyrido[2,3-d]pyrimidin-4(3H)-one], the figures for the Ki (in assay [1]; on Human μ-opioid receptor) were less than 500 nM and more than 500 nM, respectively.

With `CCCC(c1nc2ncccc2c(=O)n1CC)N1CCNCC1` (stereo not shown) [Example 94, 3-ethyl-2-(1-(piperazin-1-yl)butyl)pyrido[2,3-d]pyrimidin-4(3H)-one], the Ki was less than 500 nM in assay [1] and more than 500 nM at Human μ-opioid receptor.

On to `CCC[C@@H](c1nc2c(F)cc(Br)cc2c(=O)n1CC)N1CCNCC1` [Example 95, (S)-6-bromo-3-ethyl-8-fluoro-2-(1-(piperazin-1-yl)butyl)quinazolin-4(3H)-one], for which the figures for the Ki (in assay [1]; at Human μ-opioid receptor) were more than 5000 nM and more than 500 nM, respectively.

For `CCC[C@H](c1nc2c(F)cc(Br)cc2c(=O)n1CC)N1CCNCC1` [Example 96, (R)-6-bromo-3-ethyl-8-fluoro-2-(1-(piperazin-1-yl)butyl)quinazolin-4(3H)-one], the Ki in assay [1] is less than 500 nM; at Human μ-opioid receptor it was 100 to 500 nM.

As for `CCC[C@H](c1nc2ccc(Br)cc2c(=O)n1CC)N1CCN[C@@H](C)C1` [Example 97, 6-Bromo-3-ethyl-2-((R)-1-((S)-3-methylpiperazin-1-yl)butyl)quinazolin-4(3H)-one], the Ki is less than 500 nM in assay [1] and 100 to 500 nM at Human μ-opioid receptor.

For the compound `CCC[C@H](c1nc2ccc(Br)cc2c(=O)n1CC)N1CCN[C@H](C)C1` [Example 98, 6-bromo-3-ethyl-2-((R)-1-((R)-3-methylpiperazin-1-yl)butyl)quinazolin-4(3H)-one], the results for the Ki (in assay [1]; on Human μ-opioid receptor) were less than 500 nM and more than 500 nM, respectively.

With `CCC[C@@H](c1nc2ccc(Br)cc2c(=O)n1CC)N1CCN[C@@H](C)C1` [Example 99, 6-bromo-3-ethyl-2-((S)-1-((S)-3-methylpiperazin-1-yl)butyl)quinazolin-4(3H)-one], the Ki in assay [1] is less than 500 nM; at Human μ-opioid receptor it was more than 500 nM.

For the compound `CCC[C@@H](c1nc2ccc(Br)cc2c(=O)n1CC)N1CCN[C@H](C)C1` [Example 100, 6-bromo-3-ethyl-2-((S)-1-((R)-3-methylpiperazin-1-yl)butyl)quinazolin-4(3H)-one], the Ki is more than 5000 nM in assay [1] and more than 500 nM at Human μ-opioid receptor.

Take `CCC[C@H](c1nc2ccc(Cl)cc2c(=O)n1CC)N1CCN[C@H](C)C1` [Example 101, 6-Chloro-3-ethyl-2-((R)-1-((R)-3-methylpiperazin-1-yl)butyl)quinazolin-4(3H)-one]: the Ki in assay [1] was less than 500 nM; at Human μ-opioid receptor, more than 500 nM.

As for `CCC[C@@H](c1nc2ccc(Cl)cc2c(=O)n1CC)N1CCN[C@H](C)C1` [Example 102, 6-chloro-3-ethyl-2-((S)-1-((R)-3-methylpiperazin-1-yl)butyl)quinazolin-4(3H)-one], the Ki in assay [1] is more than 5000 nM; at Human μ-opioid receptor, more than 500 nM.

`CCC[C@H](c1nc2ccc(Cl)cc2c(=O)n1CC)N1CCN[C@@H](C)C1` [Example 103, 6-Chloro-3-ethyl-2-((R)-1-((S)-3-methylpiperazin-1-yl)butyl)quinazolin-4(3H)-one]: the Ki in assay [1] was less than 500 nM; on Human μ-opioid receptor it was less than 100 nM.

Turning to `CCC[C@@H](c1nc2ccc(Cl)cc2c(=O)n1CC)N1CCN[C@@H](C)C1` [Example 104, 6-chloro-3-ethyl-2-((S)-1-((S)-3-methylpiperazin-1-yl)butyl)quinazolin-4(3H)-one], the Ki is more than 5000 nM in assay [1] and more than 500 nM at Human μ-opioid receptor.

On to `CCC[C@@H](c1nc2cc(F)c(Br)cc2c(=O)n1CC)N1CCN[C@@H](C)C1` [Example 105, 6-Bromo-3-ethyl-7-fluoro-2-((S)-1-((S)-3-methylpiperazin-1-yl)butyl)quinazolin-4(3H)-one], for which the values for the Ki (in assay [1]; on Human μ-opioid receptor) were less than 500 nM and more than 500 nM, respectively.

With `CCC[C@H](c1nc2cc(F)c(Br)cc2c(=O)n1CC)N1CCN[C@@H](C)C1` [Example 106, 6-bromo-3-ethyl-7-fluoro-2-((R)-1-((S)-3-methylpiperazin-1-yl)butyl)quinazolin-4(3H)-one], the results for the Ki (in assay [1]; at Human μ-opioid receptor) were less than 500 nM and less than 100 nM, respectively.

For `CCC[C@@H](c1nc2ccc(Br)cc2c(=O)n1CC)N1CCN[C@@H](CCC(=O)O)C1` [Example 107, 3-((S)-4-((S)-1-(6-Bromo-3-ethyl-4-oxo-3,4-dihydroquinazolin-2-yl)butyl)piperazin-2-yl)propanoic acid], the Ki was more than 5000 nM in assay [1] (read-out: α2δ-1 binding) and more than 500 nM on Human μ-opioid receptor (read-out: μ-binding).

With `CCC[C@H](c1nc2ccc(Br)cc2c(=O)n1CC)N1CCN[C@@H](CCC(=O)O)C1` [Example 108, 3-((S)-4-((R)-1-(6-bromo-3-ethyl-4-oxo-3,4-dihydroquinazolin-2-yl)butyl)piperazin-2-yl)propanoic acid], the results for the Ki (in assay [1] (read-out: α2δ-1 binding); on Human μ-opioid receptor (read-out: μ-binding)) were more than 5000 nM and more than 500 nM, respectively.

In the case of `CCC[C@H](c1nc2ccc(Br)cc2c(=O)n1CC)N1CCN(C)[C@H](C)C1` [Example 109, 6-Bromo-2-((R)-1-((R)-3,4-dimethylpiperazin-1-yl)butyl)-3-ethylquinazolin-4(3H)-one], the Ki in assay [1] was less than 500 nM; on Human μ-opioid receptor it was 100 to 500 nM.

For `CCC[C@@H](c1nc2ccc(Br)cc2c(=O)n1CC)N1CCN(C)[C@H](C)C1` [Example 110, 6-bromo-2-((S)-1-((R)-3,4-dimethylpiperazin-1-yl)butyl)-3-ethylquinazolin-4(3H)-one], the values for the Ki (in assay [1]; on Human μ-opioid receptor) were more than 5000 nM and more than 500 nM, respectively.

Consider `CCC[C@@H](c1nc2ccc(Br)cc2c(=O)n1CC)N1CCN(C)[C@@H](C)C1` [Example 111, 6-Bromo-2-((S)-1-((S)-3,4-dimethylpiperazin-1-yl)butyl)-3-ethylquinazolin-4(3H)-one], for which the Ki was more than 5000 nM in assay [1] and more than 500 nM on Human μ-opioid receptor.

Turning to `CCC[C@H](c1nc2ccc(Br)cc2c(=O)n1CC)N1CCN(C)[C@@H](C)C1` [Example 112, 6-bromo-2-((R)-1-((S)-3,4-dimethylpiperazin-1-yl)butyl)-3-ethylquinazolin-4(3H)-one], the Ki in assay [1] is 500 to 5000 nM; on Human μ-opioid receptor, less than 100 nM.

As to `CCCC(c1nc2ccccc2c(=O)n1CCOC)N1C[C@@H](C)N[C@@H](C)C1` (stereo partly drawn) [Example 113, 2-(1-((3S,5R)-3,5-Dimethylpiperazin-1-yl)butyl)-3-(2-methoxyethyl)quinazolin-4(3H)-one], the results for the Ki (in assay [1]; at Human μ-opioid receptor) were less than 500 nM and more than 500 nM, respectively.

As for `COCCn1c(C(CC(C)C)N2C[C@@H](C)N[C@@H](C)C2)nc2ccccc2c1=O` (stereo partly drawn) [Example 114, 2-(1-((3S,5R)-3,5-dimethylpiperazin-1-yl)-3-methylbutyl)-3-(2-methoxyethyl)quinazolin-4(3H)-one], the Ki in assay [1] (read-out: α2δ-1 binding) is more than 5000 nM; on Human μ-opioid receptor (read-out: μ-binding), more than 500 nM.

`CCCCC(c1nc2ccccc2c(=O)n1CCOC)N1C[C@@H](C)N[C@@H](C)C1` (stereo partly drawn) [Example 115, 2-(1-((3S,5R)-3,5-dimethylpiperazin-1-yl)pentyl)-3-(2-methoxyethyl)quinazolin-4(3H)-one]: the Ki in assay [1] is 500 to 5000 nM; at Human μ-opioid receptor (read-out: μ-binding), more than 500 nM.
